Measured values published in patent US12018033B2, “Inhibitors of protein arginine deiminases” (Forward Therapeutics, Inc., priority 2018, dated 2024).

Biological target: T1, Recombinant human PAD4 (2-663) (Homo sapiens, UniProt Q9UM07)
T1 construct: Recombinant human PAD4 (2-663) was expressed in E. coli; made in house; host or cells: E. coli
Assay: PAD4 Inhibition Assay
Type: biochemical
Details: 60 mins pre-incubation at RT; substrate BAEE with CaCl2; fluorescent signal (λex 405/λem 460)
Method: Protein: Recombinant human PAD4 (2-663) was expressed in E. coli as an N-terminal Strep-tag and C-terminal 6-his tag fusion protein. Protein was purified using Strep-tactin resin followed by size exclusion chromatography. Tags were not removed during purification. Activity of the protein was determined using ammonia quantification assay.
PAD4 enzyme (10 μL) was diluted to concentration of 75 nM in assay buffer A (100 mM HEPES, pH 8, 50 mM NaCl, 2 mM DTT, 0.6 mg/mL BSA and 0.5% DMSO) and added to wells containing 10 μL of various concentrations of test compound, or DMSO vehicle in buffer A with 1.5% final DMSO concentration in a Corning high volume 384 well black plate. Following 60 mins pre-incubation at RT with gentle shaking, the reaction was initiated by the addition of 10 μL of substrate buffer containing 3 mM N-α-benzoyl-L-arginine ethyl ester (BAEE) and 600 μM CaCl2) in assay buffer A. The reaction was stopped after 60 mins with the addition of 15 μL stop/detection buffer containing 7.5 mM phthalaldehyde, 50 mM EDTA and 7.5 mM DTT in assay buffer A. Quenched reactions were incubated at RT for 45 mins before measuring fluorescent signal (λex 405/λem 460) on an Envision plate reader (Perkin Elmer Life Sciences, Waltham, Mass., USA).

T1 sequence (Q9UM07 2-663): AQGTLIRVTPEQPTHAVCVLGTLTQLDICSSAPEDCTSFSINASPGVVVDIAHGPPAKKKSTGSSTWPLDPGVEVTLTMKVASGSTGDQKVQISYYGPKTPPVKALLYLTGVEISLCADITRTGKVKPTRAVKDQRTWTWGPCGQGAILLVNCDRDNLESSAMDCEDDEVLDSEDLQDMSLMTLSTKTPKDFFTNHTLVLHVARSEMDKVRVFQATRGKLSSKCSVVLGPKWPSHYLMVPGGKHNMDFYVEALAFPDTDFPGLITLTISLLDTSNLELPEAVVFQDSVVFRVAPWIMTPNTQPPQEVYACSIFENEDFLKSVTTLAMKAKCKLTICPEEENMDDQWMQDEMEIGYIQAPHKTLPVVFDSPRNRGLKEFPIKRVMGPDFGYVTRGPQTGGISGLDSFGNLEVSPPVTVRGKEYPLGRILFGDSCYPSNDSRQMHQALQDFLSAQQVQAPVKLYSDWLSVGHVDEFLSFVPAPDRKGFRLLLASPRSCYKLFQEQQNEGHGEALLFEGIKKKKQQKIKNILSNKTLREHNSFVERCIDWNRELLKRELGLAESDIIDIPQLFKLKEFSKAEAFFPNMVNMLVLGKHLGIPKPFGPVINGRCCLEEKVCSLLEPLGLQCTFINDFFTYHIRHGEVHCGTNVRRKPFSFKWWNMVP

Row | IC50 | Structure (SMILES)
1 | 10 to 100 µM | C[C@H]1CCNC[C@@H]1NC(=O)c1cc2cc(Cl)c(F)c(F)c2[nH]1 [Example 41, 5-Chloro-6,7-difluoro-N-((3R,4S)-4-methylpiperidin-3-yl)-1H-indole-2-carboxamide]
2 | 10 to 100 µM | N[C@H]1CN(C(=O)c2cc3cc(Cl)c(F)c(F)c3[nH]2)CC[C@@H]1F [Example 42, ((3S,4S)-3-Amino-4-fluoropiperidin-1-yl)(5-chloro-6,7-difluoro-1H-indol-2-yl)methanone]
3 | > 100 µM | N[C@H]1CN(C(=O)c2cc3cc(Cl)c(F)c(F)c3[nH]2)CC[C@H]1F [Example 43, ((3S,4R)-3-Amino-4-fluoropiperidin-1-yl)(5-chloro-6,7-difluoro-1H-indol-2-yl)methanone]
4 | 1 to 10 µM | N[C@@H]1CCN(C(=O)c2cc3cc(Cl)c(Cl)cc3[nH]2)C1 [Example 44, (R)-(3-Aminopyrrolidin-1-yl)(5,6-dichloro-1H-indol-2-yl)methanone]
5 | 10 to 100 µM | N[C@@H]1CCN(C(=O)c2cc3cc(Cl)cc(Cl)c3[nH]2)C1 [Example 45, (R)-(3-Aminopyrrolidin-1-yl)(5,7-dichloro-1H-indol-2-yl)methanone]
6 | 1 to 10 µM | N[C@@H]1CCN(C(=O)c2cc3ccc(Cl)cc3[nH]2)C1 [Example 46, (R)-(3-Aminopyrrolidin-1-yl)(6-chloro-1H-indol-2-yl)methanone]
7 | 10 to 100 µM | N[C@@H]1CCN(C(=O)c2cc3cc(Cl)cc(Br)c3[nH]2)C1 [Example 47, (R)-(3-Aminopyrrolidin-1-yl)(7-bromo-5-chloro-1H-indol-2-yl)methanone]
8 | 1 to 10 µM | N[C@@H]1CCN(C(=O)c2cc3cc(Br)ccc3[nH]2)C1 [Example 48, (R)-(3-Aminopyrrolidin-1-yl)(5-bromo-1H-indol-2-yl)methanone]
9 | 10 to 100 µM | N[C@@H]1CCN(C(=O)c2cc3cc(F)ccc3[nH]2)C1 [Example 49, (R)-(3-Aminopyrrolidin-1-yl)(5-fluoro-1H-indol-2-yl)methanone]
10 | 10 to 100 µM | N[C@@H]1CCN(C(=O)c2cc3cc(F)c(F)cc3[nH]2)C1 [Example 50, (R)-(3-Aminopyrrolidin-1-yl)(5,6-difluoro-1H-indol-2-yl)methanone]
11 | 10 to 100 µM | CN(C(=O)c1cc2cc(Cl)c(F)c(F)c2[nH]1)[C@H]1CCNC1 [Example 51, (S)-5-chloro-6,7-difluoro-N-methyl-N-(pyrrolidin-3-yl)-1H-indole-2-carboxamide]
12 | 10 to 100 µM | CN(C(=O)c1cc2cc(Cl)c(F)c(F)c2[nH]1)C1CNC1 [Example 52, N-(azetidin-3-yl)-5-chloro-6,7-difluoro-N-methyl-1H-indole-2-carboxamide]
13 | 10 to 100 µM | CC1(NC(=O)c2cc3cc(Cl)c(F)c(F)c3[nH]2)CNC1 [Example 53, 5-chloro-6,7-difluoro-N-(3-methylazetidin-3-yl)-1H-indole-2-carboxamide]
14 | 1 to 10 µM | C[C@@H]1NC[C@@H]1NC(=O)c1cc2cc(Cl)c(F)c(F)c2[nH]1 [Example 54, 5-chloro-6,7-difluoro-N-((2S,3S)-2-methylazetidin-3-yl)-1H-indole-2-carboxamide]
15 | 1 to 10 µM | C[C@H]1NC[C@H]1NC(=O)c1cc2cc(Cl)c(F)c(F)c2[nH]1 [Example 55, 5-chloro-6,7-difluoro-N-((2R,3R)-2-methylazetidin-3-yl)-1H-indole-2-carboxamide]
16 | 1 to 10 µM | O=C(c1cc2cc(Cl)c(F)c(F)c2[nH]1)N1C[C@H]2CNC[C@H]21 [Example 56, (1R,5S)-3,6-diazabicyclo[3.2.0]heptan-6-yl(5-chloro-6,7-difluoro-1H-indol-2-yl)methanone]
17 | 1 to 10 µM | O=C(c1cc2cc(Cl)c(F)c(F)c2[nH]1)N1CC[C@H]2CNC[C@H]21 [Example 57, (5-chloro-6,7-difluoro-1H-indol-2-yl)((3aS,6aS)-hexahydropyrrolo[3,4-b]pyrrol-1(2H)-yl)methanone]
18 | 10 to 100 µM | O=C(c1cc2cc(Cl)c(F)c(F)c2[nH]1)N1CC[C@@H]2CNC[C@@H]21 [Example 58, (5-chloro-6,7-difluoro-1H-indol-2-yl)((3aR,6aR)-hexahydropyrrolo[3,4-b]pyrrol-1(2H)-yl)methanone]
19 | 10 to 100 µM | O=C(c1cc2cc(Cl)c(F)c(F)c2[nH]1)N1C[C@H]2CNC[C@H]2C1 [Example 59, (5-chloro-6,7-difluoro-1H-indol-2-yl)((3aR,6aS)-hexahydropyrrolo[3,4-c]pyrrol-2(1H)-yl)methanone]
20 | 10 to 100 µM | O=C(c1cc2cc(Cl)c(F)c(F)c2[nH]1)N1CC2(CNC2)C1 [Example 60, (5-chloro-6,7-difluoro-1H-indol-2-yl)(2,6-diazaspiro[3.3]heptan-2-yl)methanone]
21 | 10 to 100 µM | O=C(c1cc2cc(Cl)c(F)c(F)c2[nH]1)N1CC2(CCNC2)C1 [Example 61, (5-chloro-6,7-difluoro-1H-indol-2-yl)(2,6-diazaspiro[3.4]octan-2-yl)methanone]
22 | 10 to 100 µM | O=C(NC[C@H]1CCNC1)c1cc2cc(Cl)c(F)c(F)c2[nH]1 [Example 62, (S)-5-chloro-6,7-difluoro-N-(pyrrolidin-3-ylmethyl)-1H-indole-2-carboxamide]
23 | 10 to 100 µM | O=C(NC[C@@H]1CCNC1)c1cc2cc(Cl)c(F)c(F)c2[nH]1 [Example 63, (R)-5-chloro-6,7-difluoro-N-(pyrrolidin-3-ylmethyl)-1H-indole-2-carboxamide]
24 | 1 to 10 µM | C[C@@H](CN)N(C)C(=O)c1cc2cc(Cl)c(F)c(F)c2[nH]1 [Example 64, (S)-N-(1-aminopropan-2-yl)-5-chloro-6,7-difluoro-N-methyl-1H-indole-2-carboxamide]
25 | 1 to 10 µM | N[C@H]1CN(C(=O)c2cc3cc(Br)c(F)c(F)c3[nH]2)C[C@@H]1O [Example 65, ((3S,4S)-3-amino-4-hydroxypyrrolidin-1-yl)(5-bromo-6,7-difluoro-1H-indol-2-yl)methanone]
26 | 1 to 10 µM | N[C@H]1CN(C(=O)c2cc3cc(I)c(F)c(F)c3[nH]2)C[C@@H]1O [Example 66, ((3S,4S)-3-amino-4-hydroxypyrrolidin-1-yl)(6,7-difluoro-5-iodo-1H-indol-2-yl)methanone]
27 | 1 to 10 µM | N[C@H]1CN(C(=O)c2cc3cc(Br)c(F)c(F)c3[nH]2)C[C@H]1O [Example 67, ((3S,4R)-3-amino-4-hydroxypyrrolidin-1-yl)(5-bromo-6,7-difluoro-1H-indol-2-yl)methanone]
